Results published in ChEMBL document CHEMBL5625167, “In vitro bioevaluation and docking study of dihydrosphingosine and ethambutol analogues against sensitive and multi-drug resistant Mycobacterium tuberculosis” (Eur J Med Chem, 2023).
Converted amounts (≈) assume the structure as drawn.

What was measured:
[1] = test system: Mycobacterium tuberculosis; assay: Antimycobacterial activity against isoniazid, rifampicin, ethambutol and pyrazinamide sensitive Mycobacterium tuberculosis H37Rv ATCC 25618 assessed as inhibition of bacterial growth incubated for 7 days by resazurin dye based colorimetric method analysis; type: functional; settings: H37Rv ATCC 25618, 168 h, time 7 day
[2] = test system: Mycobacterium tuberculosis; assay: Potency index, ratio of ethambutol MIC to test compound MIC for antimycobacterial activity against isoniazid, rifampicin, ethambutol and pyrazinamide sensitive Mycobacterium tuberculosis H37Rv ATCC 25618 assessed as inhibition of bacterial growth incubated for 7 days by resazurin dye based colorimetric method analysis; type: functional; settings: time 7 day
[3] = Cytotoxicity against African green monkey Vero cells assessed as reduction in cell population incubated for 48 hrs by MTT assay; type: toxicity, cell-based; settings: chlorocebus sabaeus
[4] = Cytotoxicity against mouse J774.A1 cells assessed as reduction in cell population incubated for 48 hrs by MTT assay; type: toxicity, cell-based
[5] = test system: Mycolicibacterium smegmatis; assay: Antimycobacterial activity against Mycobacterium smegmatis ATCC607 incubated for 24 hrs by resazurin dye based broth microdilution method; type: functional
Staphylococcus aureus = assay: Antibacterial activity against Staphylococcus aureus ATCC 25923 incubated for 18 hrs by resazurin dye based broth microdilution method; type: functional
Klebsiella pneumoniae = assay: Antibacterial activity against Klebsiella pneumoniae ATCC 13883 incubated for 18 hrs by resazurin dye based broth microdilution method; type: functional
[6] = Cytotoxicity against human HepG2 cells assessed as reduction in cell population incubated for 48 hrs by MTT assay; type: toxicity, cell-based

SMILES	MIC [1] [µM]	Ratio [2]	CC50 at 48 h [3] [µM]	CC50 at 48 h [4] [µM]	MIC [5] [µM]	MIC (Staphylococcus aureus) [µM]	MIC (Klebsiella pneumoniae) [µM]	CC50 at 48 h [6] [µM]
CCCCCCCCCCCCCCCC(CO)NCCCCCC (stereo not drawn)	64 (≈ 22.8 µg/mL)	6	113	23.8	256 (≈ 91 µg/mL)	128 (≈ 45.5 µg/mL)	> 512	
CCCCc1ccc(CCCCCCCCCC(CO)NC(=O)OC(C)(C)C)cc1 (stereo not drawn)	32 (≈ 13.4 µg/mL)	11	31	15.8				
CCCCCCCCCCCC(CO)NCC (stereo not drawn)	> 64	>5.6	37.3	10.5				
Cc1onc(-c2ccccc2)c1C(=O)N[C@@H]1C(=O)N2[C@@H]1SC(C)(C)[C@@H]2C(=O)O [OXACILLIN]						0.25 (≈ 0.1 µg/mL)		
CCCCCCCCCCCCCCCC(N)CN (stereo not drawn)	> 64	<5.6	192	217	512 (≈ 138 µg/mL)	> 512	> 512	
CCCCCCCCCCCCCCCCCC(CN)NC(=O)OC(C)(C)C (stereo not drawn)	16 (≈ 6.38 µg/mL)	23	17.7	30.5	8 (≈ 3.19 µg/mL)	16 (≈ 6.38 µg/mL)	> 512	115
CCCCCCCCCCCCCCCCCCCC(CNCC)NC(=O)OC(C)(C)C (stereo not drawn)	4 (≈ 1.82 µg/mL)	90	33.7	4.7	16 (≈ 7.28 µg/mL)	256 (≈ 116 µg/mL)	> 512	158
CCCCCCCCCCCCCCCCCC(N)COCc1ccccc1 (stereo not drawn)	64 (≈ 24.9 µg/mL)	6	138	93.3	> 512	> 512	> 512	
CCCCCCCCCCCCCCCCCCCC(N)COCc1ccccc1 (stereo not drawn)	32 (≈ 13.4 µg/mL)	11	126	23	256 (≈ 107 µg/mL)	> 512	> 512	
CCCCCCCCCCCCCCCCCC(N)CO (stereo not drawn)	8 (≈ 2.4 µg/mL)	45	53.2	9.65	256 (≈ 76.7 µg/mL)	256 (≈ 76.7 µg/mL)	> 512	200
CCCCCCCCCCCC(N)CO (stereo not drawn)	64 (≈ 13.8 µg/mL)	6	40.8	2.35				
CCCCCCCCCCCCCCCCCCCC(COCc1ccccc1)NCC (stereo not drawn)	16 (≈ 7.13 µg/mL)	23	67.8	52.3	128 (≈ 57.1 µg/mL)	> 512	> 512	95.1
CCCCCCCCCCCCCCCC(COCc1ccccc1)NCCCCCC (stereo not drawn)	64 (≈ 28.5 µg/mL)	6	54	54.6				
CCCCc1ccc(CCCCCC(N)CO)cc1 (stereo not drawn)	64 (≈ 16.9 µg/mL)	6	27.8	10.7				
CCCCc1ccc(CCCCCCCC(N)CO)cc1 (stereo not drawn)	4 (≈ 1.17 µg/mL)	90	21.2	10.6				25.4
CCCCc1ccc(CCCCCC(CO)NC(=O)OC(C)(C)C)cc1 (stereo not drawn)	64 (≈ 23.3 µg/mL)	6	51.5	14.2				
CCCCCCCCCCCCCCCC(CO)NCCCC (stereo not drawn)	64 (≈ 21 µg/mL)	6	73.4	23.7				
CCCCCCCCCCCCCCCCCC(CO)N(CC)CC (stereo not drawn)	> 64	<5.6	85.5	49.5	> 512	> 512	> 512	

SMILES	MIC [1] [µM]	Ratio [2]	CC50 at 48 h [3] [µM]	CC50 at 48 h [4] [µM]	MIC [5] [µM]	MIC (Staphylococcus aureus) [µM]	MIC (Klebsiella pneumoniae) [µM]	CC50 at 48 h [6] [µM]
CCCCCCCCCCCCCCCCCC(CO)NCCCC (stereo not drawn)	32 (≈ 11.4 µg/mL)	11	148	31.1	512 (≈ 182 µg/mL)	512 (≈ 182 µg/mL)	> 512	
CC(C)(O/N=C(\C(=O)N[C@@H]1C(=O)N2C(C(=O)[O-])=C(C[n+]3ccccc3)CS[C@H]12)c1csc(N)n1)C(=O)O [CEFTAZIDIME]							0.5 (≈ 0.273 µg/mL)	
CCCCCCCCCCCCCCCCCCCC(CO)N(CC)CC (stereo not drawn)	> 64	<5.6	117	102	> 512	> 512	> 512	
CCCCCCCCCCCCCCCC(CO)N(CC)CC (stereo not drawn)	4 (≈ 1.31 µg/mL)	90	25.1	23.3				
CCCCc1ccc(CCCCCCCC(CO)NC(=O)OC(C)(C)C)cc1 (stereo not drawn)	32 (≈ 12.5 µg/mL)	11	28.3	12.9				
CCCCCCCCCCCCCCCC(CO)N(CCCC)CCCC (stereo not drawn)	8 (≈ 3.07 µg/mL)	45	47.2	22.4	> 512			82.5
CCCCCCCCCCCCCCCC(CO)NCCCCCCCCCC (stereo not drawn)	64 (≈ 26.4 µg/mL)	6	104	55.3	128 (≈ 52.7 µg/mL)	512 (≈ 211 µg/mL)	> 512	
CCCCCCCCCCCCCCCC(CNCC(=O)OCC)NC(=O)OC(C)(C)C (stereo not drawn)	32 (≈ 14.6 µg/mL)	11	39	27.9				
CCCCCCCCCCCCCCCC(CO)NCC (stereo not drawn)	16 (≈ 4.79 µg/mL)	23	27.7	22.8				
CCCCCCCCCCCCCCCCCC(COCc1ccccc1)NCCCCCC (stereo not drawn)	64 (≈ 30.3 µg/mL)	6	120	118	> 512	> 512	> 512	
CCCCCCCCCCCC(CNCC)NC(=O)OC(C)(C)C (stereo not drawn)	64 (≈ 21.9 µg/mL)	6	32.3	20.9				
CCCCCCCCCCCCCCCC(N)CNCC (stereo not drawn)	32 (≈ 9.55 µg/mL)	11	40.1	25.6				
CCCCCCCCCCCCCCCC(CN)NC(=O)OC(C)(C)C (stereo not drawn)	17.6 (≈ 6.52 µg/mL)	20	21.9	5.18				
CCCCCCCCCCCC(CO)N(CC)CC (stereo not drawn)	64 (≈ 17.4 µg/mL)	6	36.2	17.6				
CCCCc1ccc(CCCCCCCCCC(N)CO)cc1 (stereo not drawn)	8 (≈ 2.56 µg/mL)	45	25.4	11.7				45.6
CCCCCCCCCCCC(CO)NCCCC (stereo not drawn)	32 (≈ 8.69 µg/mL)	11	26	21.4				
CCCCCCCCCCCCCCCCCCCC(CN)NC(=O)OC(C)(C)C (stereo not drawn)	32 (≈ 13.7 µg/mL)	11	51.4	36				
CCCCCCCCCCCCCCCC(CN=[N+]=[N-])NC(=O)OC(C)(C)C (stereo not drawn)	> 64	<5.6	63.8	104	> 512	> 512	> 512	
